Drawing on ChEMBL document CHEMBL3352751, “7,9-Diaryl-1,6,8-trioxaspiro[4.5]dec-3-en-2-ones: readily accessible and highly potent anticancer compounds” (Bioorg Med Chem Lett, 2014), this text covers IC50 and MIC95 for 14 molecules.

The structures appear in SMILES notation. Values after ≈ are worked out from the molar mass of the structure shown. Where only a bound is given, the exact number is not on record here.

Test [1] is described as follows: Anticancer activity against human NMC-797 cells after 48 hrs by viability assay. The test is classed as functional, cell-based. The following applies: NMC-797, 48 h.
Test [2] in a line: Anticancer activity against human MJ cells after 48 hrs by viability assay. The format is functional, cell-based.
The subject of test [3] is Escherichia coli. Briefly: Antimicrobial activity against Escherichia coli K-12 ATCC 25404 assessed as growth inhibition after 20 hrs by two-fold microdilution method. The format is functional, organism-based. The following applies: K-12 ATCC 25404, 20 h. A general note: Dilution methods test growth across graded concentrations, often in twofold steps.
The test system of test [4] is Bacillus subtilis. Briefly: Antimicrobial activity against Bacillus subtilis Marburg ATCC 6051 assessed as growth inhibition after 20 hrs by two-fold microdilution method. The test is classed as functional, organism-based. The following applies: Marburg ATCC 6051, 20 h.
The subject of test [5] is Mycolicibacterium smegmatis. Briefly: Antimicrobial activity against Mycobacterium smegmatis strain MC2 155 ATCC 700084 assessed as growth inhibition after 20 hrs by two-fold microdilution method. The format is functional, organism-based. The settings on record: MC2 155 ATCC 700084, 20 h.

For `CC1[C@@H](c2cccc([N+](=O)[O-])c2)O[C@@H](c2cccc([N+](=O)[O-])c2)O[C@@]12C=CC(=O)O2` (mixture of isomers), the IC50 (in general, the concentration at which inhibition is half-maximal) in test [1] is 12000 nM; in test [2], over 20000 nM.
Consider `O=C1C=C[C@]2(C[C@@H](c3cccc([N+](=O)[O-])c3)O[C@@H](c3cccc([N+](=O)[O-])c3)O2)O1` (racemic), for which the IC50 in test [1] was 47 nM; in test [2] it was 170 nM; in test [3] it was over 500000 nM; in test [4] it was 216000 nM; in test [5], over 500000 nM. In addition, the MIC95 is over 500 µM in test [3], 425 µM (≈ 169 µg/mL) in test [4] and over 500 µM in test [5].
On to `O=C1C=C[C@]2(C[C@@H](c3cccc(Cl)c3)O[C@@H](c3cccc(Cl)c3)O2)O1` (racemic), for which the IC50 in test [1] is 82 nM; in test [2] it was 260 nM; in test [3] it was over 500000 nM; in test [4], 408000 nM; in test [5], over 500000 nM. Further, the MIC95 in test [3], in test [4] and in test [5] was over 500 µM each time.
For the molecule `O=C1C=C[C@]2(C[C@@H](c3c(F)c(F)c(F)c(F)c3F)O[C@@H](c3c(F)c(F)c(F)c(F)c3F)O2)O1` (racemic), the IC50 in test [1] was found to be 570 nM; in test [2], 2000 nM.
For `O=C1C=C[C@]2(C[C@@H](c3cccc(C(F)(F)F)c3)O[C@@H](c3cccc(C(F)(F)F)c3)O2)O1` (racemic) the same measures were 30 nM and 190 nM.
Take `O=C1C=C[C@]2(C[C@@H](c3ccccc3)O[C@@H](c3ccccc3)O2)O1` (racemic): the IC50 in test [1] was 900 nM; in test [2], 1700 nM; in test [3] it was over 500000 nM; in test [4], 224000 nM; in test [5], over 500000 nM. Besides, the MIC95 in test [3], in test [4] and in test [5] was over 500 µM in each case.
`O=C1C=C[C@]2(C[C@@H](c3coc([N+](=O)[O-])c3)O[C@@H](c3coc([N+](=O)[O-])c3)O2)O1` (racemic): the half-maximal inhibitory concentration (IC50) in test [1] is 340 nM; in test [2] it was 820 nM.
Consider `O=C1CC[C@]2(C[C@@H](c3cccc(C(F)(F)F)c3)O[C@@H](c3cccc(C(F)(F)F)c3)O2)O1` (racemic), for which the IC50 in test [1] and in test [2] was over 20000 nM each time.
On to `O=C1C=C[C@]2(C[C@@H](c3ccccc3[N+](=O)[O-])O[C@@H](c3ccccc3[N+](=O)[O-])O2)O1` (racemic), for which the half-maximal inhibitory concentration (IC50) was found to be 64 nM in test [1] and 170 nM in test [2].
For `O=C1C=C[C@]2(C[C@@H](c3ccc4ccccc4c3[N+](=O)[O-])O[C@@H](c3ccc4ccccc4c3[N+](=O)[O-])O2)O1` (racemic) the same measures were 7600 nM and over 20000 nM.
For `O=C1C=C[C@]2(C[C@@H](c3ccc([N+](=O)[O-])cc3)O[C@@H](c3ccc([N+](=O)[O-])cc3)O2)O1` (racemic) the same measures were 26 nM and 190 nM.
For `O=C1C=C[C@]2(CCOCO2)O1` (racemic) the same measures were 8600 nM and over 20000 nM.
Regarding `O=C1C=C[C@]2(C[C@@H](c3ccccc3)O[C@@H](c3cccc([N+](=O)[O-])c3)O2)O1` (racemic), the half-maximal inhibitory concentration (IC50) in test [1] came out at 120 nM; in test [2], 340 nM.
Turning to `O=C1C=C[C@]2(C[C@@H](c3cccc([N+](=O)[O-])c3)O[C@@H](c3ccccc3)O2)O1` (racemic), the concentration for half-maximal inhibition (IC50) in test [1] is 160 nM; in test [2] it was 370 nM.
